The data set addresses T1, RARγ (Homo sapiens, UniProt P13631).
T1 sequence (P13631 185-419 limits assumed): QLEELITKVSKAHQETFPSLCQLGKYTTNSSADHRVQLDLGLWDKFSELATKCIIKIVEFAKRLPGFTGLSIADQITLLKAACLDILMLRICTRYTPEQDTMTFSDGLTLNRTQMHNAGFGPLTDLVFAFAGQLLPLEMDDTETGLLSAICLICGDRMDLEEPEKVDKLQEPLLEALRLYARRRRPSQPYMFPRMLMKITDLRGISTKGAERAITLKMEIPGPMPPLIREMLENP
Put plainly: Gal4-RARγ-LBD UAS-luciferase reporter in HEK293T, activation at […]. In kind it is cell-based. The settings on record: hek293t cells. A general note: Reporter assays use an easily measured gene product as a stand-in for the process of interest.

On to `CC1=C(/C=C/C(C)=C/C=C/C(C)=C/C(=O)O)C(C)(C)CCC1` [ATRA, all-trans retinoic acid], for which the “Gal4-RARγ-LBD UAS-luciferase reporter in HEK293T, activation at 1 nM (2.1 fold)” value came out at 2.1 fold.
